Experiment: xn = mol fraction of the nth substance listed
Conditions: Liquid, determined from the liquid sample's weight and the volume of sample.

CC [ethane] + N#N
Conditions | mass density [kg/m3]
149.97 K, x2 = 0.0702 | 558.2
169.87 K, x2 = 0.2041 | 544.8
169.91 K, x2 = 0.114 | 537.5
170 K, x2 = 0.036 | 525
209.93 K, x2 = 0.0236 | 479.7
210.04 K, x2 = 0.3352 | 482.6
249.66 K, x2 = 0.0761 | 416.5
249.98 K, x2 = 0.0518 | 414.7
250.03 K, x2 = 0.1483 | 407.9
269.91 K, x2 = 0.1969 | 350.5
269.94 K, x2 = 0.0305 | 378.2
269.97 K, x2 = 0.3581 | 284.6
270 K, x2 = 0.2503 | 332.5
270.01 K, x2 = 0.06 | 376.3

N#N [nitrogen] + C
Conditions | mass density [kg/m3]
129.98 K, x1 = 0.2952 | 648.5
129.99 K, x1 = 0.4716 | 618.7
149.93 K, x1 = 0.5938 | 413.6
149.96 K, x1 = 0.4151 | 527.4
149.97 K, x1 = 0.1389 | 602.8
149.97 K, x1 = 0.3339 | 555.8
150 K, x1 = 0.5608 | 436
150.01 K, x1 = 0.504 | 474.9
159.36 K, x1 = 0.3238 | 492
159.96 K, x1 = 0.4275 | 427.8
159.98 K, x1 = 0.0224 | 577
159.99 K, x1 = 0.2659 | 511
160 K, x1 = 0.4156 | 432.5
169.98 K, x1 = 0.2384 | 436.4
169.99 K, x1 = 0.263 | 420.1
170.01 K, x1 = 0.2279 | 442.9
170.01 K, x1 = 0.3013 | 383.6
179.98 K, x1 = 0.1281 | 390.8
179.98 K, x1 = 0.1898 | 319
